Reference: patent publication US20250002446A1, “Acetoacetate Based Ketals” (ARXADA AG, priority 2021, published 2025)

Assay: Acetal cleavage in simulated gastric fluid (SGF)
Format: physicochemical
Details: 35-37° C., EtOAc extract analyzed by thin layer chromatography
Protocol: Acetal cleavage in simulated gastric fluid (SGF): propane-1,2,3-triyl tris(2-(2,4-dimethyl-1,3-dioxan-2-yl)acetate) (1 g, 2 mmol, 1 eq) was mixed with simulated gastric fluid (SGF) (5 g, 5 rel. eq.) at 35-37° C. After 30 min, 1 h and 2 h the mixture was sampled and extracted with EtOAc.

Q: For `CC1CCOC(C)(CC(=O)OCC(COC(=O)CC2(C)OCCC(C)O2)OC(=O)CC2(C)OCCC(C)O2)O1` (centres unmarked) [propane-1,2,3-triyl tris(2-(2,4-dimethyl-1,3-dioxan-2-yl)acetate)], which “hydrolysis to 1,3-butanediol and propane-1,2,3-triyl tris(3-oxobutanoate)” value (after 30 min) is on record?
A: a majority of the product had hydrolyzed

Q: What about the “hydrolysis to 1,3-butanediol and propane-1,2,3-triyl tris(3-oxobutanoate)” value (after 1 h) of the same compound?
A: hydrolyzation was complete
